According to paper PMC2011122 (British Journal of Cancer, 1982):
Read-outs that look alike come from different tables or passages of the source.

Tests used:
[1] = Polymorphic acetylation in humans; format: in vivo; settings: conclusion from urinary excretion in 10 phenotyped volunteers
[2] = system: bovine adrenal cells; set-up: method as in Coombes et al., 1980; settings: bovine adrenal cells in culture, ref Coombes et al., 1980, cited from earlier work; for Glucocorticoid production, % of the resting levels: 10 ug/ml
[3] = set-up: method as in Coombes et al. (1980); settings: after AG, ref Coombes et al. (1980), cited from earlier work
[4] = cited from earlier work
[5] = system: mammary carcinoma; set-up: method as in Smith et al., 1978; settings: postmenopausal women; ref Smith et al., 1978; cited from earlier work
[6] = set-up: method as in Douglas & Nicholls, 1972; settings: humans, urine; ref Douglas & Nicholls, 1972; cited from earlier work
[7] = 24 h urinary excretion of AG and metabolites in volunteers given oral AG; settings: oral AG 250 mg, 24 h urine, excreted as the named substance; for Percentage of the administered dose excreted in the urine during 24 h, mean, rapid (fast) acetylators: rapid acetylators of sulphadimidine (5 volunteers); for Percentage of the administered dose excreted in the urine during 24 h, mean, slow acetylators: slow acetylators of sulphadimidine (5 volunteers)
[8] = 6 h urine after sulphadimidine
[9] = set-up: method as in Testa & Jenner, 1976; settings: ref Testa & Jenner, 1976; cited from earlier work
[10] = system: steroidogenesis; settings: no reference given; cited from earlier work
[11] = set-up: method as in Hoffman & Tagmann, 1954; settings: ref Hoffman & Tagmann, 1954; cited from earlier work

CCC1(c2ccc(N)cc2)CCC(=O)NC1=O (stereo not shown) [AG, aminoglutethimide]
Acetylation polymorphism in humans [1]: polymorphically acetylated
Glucocorticoid production, % of the resting levels [2]: 833%
Plasma level at 0.5 h, mean, slow acetylators ([3]; 4 slow acetylators): 1140 ng/mL
Plasma level at 0.5 h, mean, rapid acetylators ([3]; 5 rapid acetylators): 960 ng/mL
Plasma level at 2 h, mean, rapid acetylators ([3]; 5 rapid acetylators): 0 to 60000 ng/mL
Side effects in patients ([4]; patients, ref Smith et al., 1978): skin rash and lethargy
Efficacy in the treatment of mammary carcinoma [5]: effective agent

CCC1(c2ccc(NC(C)=O)cc2)CCC(=O)NC1=O (stereo not shown) [N-acetylAG, N-Acetylaminoglutethimide]
Glucocorticoid production, % of the resting levels [2]: 58%
Inhibition of steroidogenesis (ability to reduce corticosteroid output) ([2]; compared with AG): poor inhibitor
Plasma level at 8 h, mean, slow acetylators ([3]; 4 slow acetylators): 0 to 37000 ng/mL
Percentage of the administered dose of AG accounted for as urinary metabolite [6]: 4-25%
Percentage of the administered dose excreted in the urine during 24 h, mean, rapid (fast) acetylators [7]: 8.8%
Percentage of the administered dose excreted in the urine during 24 h, mean, slow acetylators [7]: 3.9%

CC(=O)Nc1ccc(S(=O)(=O)Nc2nc(C)cc(C)n2)cc1 [N-acetylsulphadimidine]
Percentage of the excreted dose as N-acetylsulphadimidine, rapid acetylators ([8]; rapid acetylators): 89-96%
Percentage of the excreted dose as N-acetylsulphadimidine, slow acetylators ([8]; slow acetylators): 62-68%

CCC1(c2ccc(NC=O)cc2)CCC(=O)NC1=O (stereo not shown) [N-formylAG, N-Formylaminoglutethimide]
Percentage of the administered dose excreted in the urine during 24 h, mean, rapid (fast) acetylators [7]: 0.465%
Percentage of the administered dose excreted in the urine during 24 h, mean, slow acetylators [7]: 0.475%

Nc1ccc(S(=O)(=O)c2ccc(N)cc2)cc1 [diaminodiphenylsulphone]
Acetylation polymorphism in humans [9]: polymor- phically acetylated

CCC1(c2ccccc2)CCC(=O)NC1=O (stereo not shown) [glutethimide]
Inhibitory effect on steroidogenesis [10]: little inhibitory effect
Hypnotic activity [11]: powerful hypnotic

NNc1nncc2ccccc12 [hydralazine]
Adverse side-effect induced ([4]; preponderantly in slow acetylators, ref Perry et al., 1970): lupus erythematosus

NNC(=O)c1ccncc1 [isoniazid]
Acetylation polymorphism in humans [9]: polymor- phically acetylated

CCC1(c2ccc([N+](=O)[O-])cc2)CCC(=O)NC1=O (stereo not shown) [nitroG, Nitroglutethimide]
Percentage of the administered dose excreted in the urine during 24 h, mean, rapid (fast) acetylators [7]: 0.047%
Percentage of the administered dose excreted in the urine during 24 h, mean, slow acetylators [7]: 0.10%

Cc1cc(C)nc(NS(=O)(=O)c2ccc(N)cc2)n1 [sulphamethazine]
Acetylation polymorphism in humans [9]: polymor- phically acetylated
